Test results as given in US12655116B2, “Substituted isophthalic acid diamides” (Bayer Aktiengesellschaft, priority 2020, dated 2026).

Tests used:
ALOMY [1] = assay: Pre-emergence herbicidal action against ALOMY; assay type: in vivo, Alopecurus myosuroides; conditions: Alopecurus myosuroides, 504 h, pre-emergence
Procedure, shortened: (§1)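 Sandy loam pots, seeds covered with soil, then surface-treated with WP or EC formulations at 600–800 l/ha water plus 0.2% wetting agent. Greenhouse, 3 weeks. Percent damage vs untreated controls.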

MATIN [2] = assay: Post-emergence herbicidal action against MATIN; assay type: in vivo, Matricaria inodora; conditions: Tripleurospermum inodorum, 504 h; for pest or weed control at 20 g/ha: dosage 20 g/ha
Procedure, shortened: (§2)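 Herbicidal action is a visual percentage rating (0% = as untreated control, 100% = plants dead) made roughly 3 weeks after treatment. Plants were grown in sandy loam in the greenhouse and treated at the one-leaf stage, 2 to 3 weeks post-sowing. Treatment was a foliar spray of wettable-powder or emulsion-concentrate formulations at 600 to 800 l/ha water plus 0.2% wetting agent.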

ECHCG [3] = assay: Pre-emergence herbicidal action against ECHCG; assay type: in vivo, Echinochloa crus-galli; conditions: Echinochloa crus-galli, 504 h
Procedure, shortened: as §1

VIOTR [4] = assay: Pre-emergence herbicidal action against VIOTR; assay type: in vivo, Viola tricolor; conditions: Viola tricolor, 504 h; for pest or weed control at 80 g/ha: dosage 80 g/ha
Procedure, shortened: as §1

ABUTH [5] = assay: Pre-emergence herbicidal action against ABUTH; assay type: in vivo, Abutilon theophrasti; conditions: Abutilon theophrasti, 504 h; for pest or weed control at 80 g/ha: scored visually after 3 weeks vs untreated controls (100% = plants have died, 0% = like control plants)
Procedure, shortened: as §1

PHBPU [6] = assay: Pre-emergence herbicidal action against PHBPU; assay type: in vivo, Pharbitis purpurea; conditions: Ipomoea purpurea, 504 h, dosage 80 g/ha
Procedure, shortened: as §1

PHBPU [7] = assay: Post-emergence herbicidal action against PHBPU; assay type: in vivo, Pharbitis purpurea; conditions: Ipomoea purpurea, 504 h
Procedure, shortened: as §2

ABUTH [8] = assay: Post-emergence herbicidal action against ABUTH; assay type: in vivo, Abutilon theophrasti; conditions: Abutilon theophrasti, 504 h, visual assessment about 3 weeks after treatment vs untreated controls; for pest or weed control at 20 g/ha: dosage 20 g/ha
Procedure, shortened: as §2

POLCO = assay: Pre-emergence herbicidal action against POLCO; assay type: in vivo, Polygonum convolvulus; conditions: Fallopia convolvulus, 504 h, dosage 80 g/ha
Procedure, shortened: as §1

AMARE [9] = assay: Post-emergence herbicidal action against AMARE; assay type: in vivo, Amaranthus retroflexus; conditions: Amaranthus retroflexus, 504 h, visual assessment about 3 weeks after treatment, 100% = plants have died, 0% = like control plants
Procedure, shortened: as §2

SETVI [10] = assay: Pre-emergence herbicidal action against SETVI; assay type: in vivo, Setaria viridis; conditions: Setaria viridis, 504 h; for pest or weed control at 80 g/ha: dosage 80 g/ha
Procedure, shortened: as §1

DIGSA [11] = assay: Post-emergence herbicidal action against DIGSA; assay type: in vivo, Digitaria sanguinalis; conditions: Digitaria sanguinalis, 504 h
Procedure, shortened: as §2

HORMU [12] = assay: Post-emergence herbicidal action against HORMU; assay type: in vivo, Hordeum murinum; conditions: Hordeum murinum, 504 h; for pest or weed control at 20 g/ha: dosage 20 g/ha
Protocol: Seeds of monocotyledonous and dicotyledonous weed and crop plants are laid out in sandy loam soil in wood-fiber pots, covered with soil and cultivated in a greenhouse under good growth conditions. 2 to 3 weeks after sowing, the test plants are treated at the one-leaf stage. The compounds of the invention, formulated in the form of wettable powders (WP) or as emulsion concentrates (EC), are then sprayed onto the green parts of the plants in the form of an aqueous suspension or emulsion at a water application rate equivalent to 600 to 800 l/ha, with addition of 0.2% wetting agent. After the test plants have been left to stand in the greenhouse under optimal growth conditions for about 3 weeks, the action of the preparations is assessed visually in comparison to untreated controls (herbicidal action in percent (%): 100% activity=the plants have died, 0% activity=like control plants). […] The tables below illustrate, in an illustrative manner, the post-emergence herbicidal action of the compounds of the invention, the herbicidal activity being stated in percent.

AVEFA [13] = assay: Post-emergence herbicidal action against AVEFA; assay type: in vivo, Avena fatua; conditions: Avena fatua, 504 h, visual assessment about 3 weeks after treatment, 100% = plants have died, 0% = like control plants
Procedure, shortened: as §2

ECHCG [14] = assay: Post-emergence herbicidal action against ECHCG; assay type: in vivo, Echinochloa crus-galli; conditions: Echinochloa crus-galli, 504 h; for pest or weed control at 20 g/ha: dosage 20 g/ha
Procedure, shortened: as §2

HORMU [15] = assay: Pre-emergence herbicidal action against HORMU; assay type: in vivo, Hordeum murinum; conditions: Hordeum murinum, 504 h, pre-emergence
Procedure, shortened: as §1

STEME [16] = assay: Pre-emergence herbicidal action against STEME; assay type: in vivo, Stellaria media; conditions: Stellaria media, 504 h; for pest or weed control at 80 g/ha: dosage 80 g/ha
Procedure, shortened: as §1

SETVI [17] = assay: Post-emergence herbicidal action against SETVI; assay type: in vivo, Setaria viridis; conditions: Setaria viridis, 504 h
Procedure, shortened: as §2

VIOTR [18] = assay: Post-emergence herbicidal action against VIOTR; assay type: in vivo, Viola tricolor; conditions: Viola tricolor, 504 h
Procedure, shortened: as §2

STEME [19] = assay: Post-emergence herbicidal action against STEME; assay type: in vivo, Stellaria media; conditions: Stellaria media, 504 h
Procedure, shortened: as §2

MATIN [20] = assay: Pre-emergence herbicidal action against MATIN; assay type: in vivo, Matricaria inodora; conditions: Tripleurospermum inodorum, 504 h; for pest or weed control at 80 g/ha: dosage 80 g/ha
Procedure, shortened: as §1

AMARE [21] = assay: Pre-emergence herbicidal action against AMARE; assay type: in vivo, Amaranthus retroflexus; conditions: Amaranthus retroflexus, 504 h, 100% = plants have died, 0% = like control plants
Procedure, shortened: as §1

ALOMY [22] = assay: Post-emergence herbicidal action against ALOMY; assay type: in vivo, Alopecurus myosuroides; conditions: Alopecurus myosuroides, 504 h, visual assessment about 3 weeks after treatment vs untreated controls; for pest or weed control at 20 g/ha: dosage 20 g/ha
Procedure, shortened: as §2

AVEFA [23] = assay: Pre-emergence herbicidal action against AVEFA; assay type: in vivo, Avena fatua; conditions: Avena fatua, 504 h, pre-emergence
Procedure, shortened: as §1

DIGSA [24] = assay: Pre-emergence herbicidal action against DIGSA; assay type: in vivo, Digitaria sanguinalis; conditions: Digitaria sanguinalis, 504 h; for pest or weed control at 80 g/ha: dosage 80 g/ha
Procedure, shortened: as §1

VERPE [25] = assay: Pre-emergence herbicidal action against VERPE; assay type: in vivo, Veronica persica; conditions: Veronica persica, 504 h, dosage 320 g/ha
Procedure, shortened: as §1

VERPE [26] = assay: Post-emergence herbicidal action against VERPE; assay type: in vivo, Veronica persica; conditions: Veronica persica, 504 h, 80 g/ha
Procedure, shortened: as §2

[27] = scored visually after 3 weeks vs untreated controls
[28] = 320 g/ha, scored visually after 3 weeks, 100% = plants have died, 0% = like control plants

Structure (SMILES): CCn1nnnc1NC(=O)c1ccc(C(F)(F)F)c(C(=O)NC2CC2)c1Cl [Example 2-131]
- pest or weed control at 80 g/ha (ALOMY [1]; 80 g/ha, scored visually after 3 weeks vs untreated controls (100% = plants have died, 0% = like control plants)): 100%
- pest or weed control at 20 g/ha (ALOMY [1]; 20 g/ha, scored visually after 3 weeks, 100% = plants have died, 0% = like control plants): 90%
- pest or weed control at 5 g/ha (MATIN [2]; dosage 5 g/ha): 90%
- pest or weed control at 20 g/ha (MATIN [2]): 100%
- pest or weed control at 80 g/ha (ECHCG [3]): 100%
- pest or weed control at 20 g/ha (VIOTR [4]; dosage 20 g/ha): 100%
- pest or weed control at 80 g/ha (VIOTR [4]): 100%
- pest or weed control at 80 g/ha (ABUTH [5]): 100%
- pest or weed control at 20 g/ha (ABUTH [5]; dosage 20 g/ha, scored visually after 3 weeks vs untreated controls, 100% = plants have died, 0% = like control plants, read-out: Pre-emergence action against ABUTH (herbicidal activity in percent)): 100%
- pest or weed control at 80 g/ha (PHBPU [6]): 80%
- pest or weed control at 20 g/ha (PHBPU [7]; dosage 20 g/ha): 80%
- pest or weed control at 20 g/ha (ABUTH [8]): 90%
- pest or weed control at 80 g/ha (POLCO): 90%
- pest or weed control at 20 g/ha (AMARE [9]; 20 g/ha): 100%
- pest or weed control at 20 g/ha (SETVI [10]; dosage 20 g/ha): 80%
- pest or weed control at 80 g/ha (SETVI [10]): 100%
- pest or weed control at 5 g/ha (DIGSA [11]; 5 g/ha): 90%
- pest or weed control at 20 g/ha (DIGSA [11]): 90%
- pest or weed control at 20 g/ha (HORMU [12]): 100%
- pest or weed control at 5 g/ha (AVEFA [13]; 5 g/ha): 80%
- pest or weed control at 20 g/ha (AVEFA [13]; 20 g/ha): 80%
- pest or weed control at 20 g/ha (ECHCG [14]): 80%
- pest or weed control at 80 g/ha (HORMU [15]; 80 g/ha): 80%
- pest or weed control at 20 g/ha (STEME [16]; dosage 20 g/ha): 100%
- pest or weed control at 80 g/ha (STEME [16]): 100%
- pest or weed control at 5 g/ha (SETVI [17]; dosage 5 g/ha): 90%
- pest or weed control at 20 g/ha (SETVI [17]; dosage 20 g/ha): 100%
- pest or weed control at 5 g/ha (VIOTR [18]; 5 g/ha): 100%
- pest or weed control at 20 g/ha (VIOTR [18]; 20 g/ha): 100%
- pest or weed control at 20 g/ha (STEME [19]): 90%
- pest or weed control at 5 g/ha (STEME [19]; dosage 5 g/ha): 90%
- pest or weed control at 20 g/ha (MATIN [20]; dosage 20 g/ha): 90%
- pest or weed control at 80 g/ha (MATIN [20]): 100%
- pest or weed control at 20 g/ha (AMARE [21]; 20 g/ha, scored visually after 3 weeks vs untreated controls): 100%
- pest or weed control at 80 g/ha (AMARE [21]; [27]): 100%
- pest or weed control at 20 g/ha (ALOMY [22]): 80%
- pest or weed control at 80 g/ha (AVEFA [23]): 100%
- pest or weed control at 20 g/ha (DIGSA [24]; dosage 20 g/ha): 90%
- pest or weed control at 80 g/ha (DIGSA [24]): 100%

Structure (SMILES): CCNC(=O)c1c(C(F)(F)F)ccc(C(=O)Nc2nnc(C)o2)c1Cl [Example 6-117]
- pest or weed control at 320 g/ha (ALOMY [1]; [28]): 90%
- pest or weed control at 20 g/ha (MATIN [2]): 90%
- pest or weed control at 80 g/ha (MATIN [2]; dosage 80 g/ha): 90%
- pest or weed control at 80 g/ha (ECHCG [3]): 90%
- pest or weed control at 320 g/ha (ECHCG [3]; 320 g/ha): 100%
- pest or weed control at 80 g/ha (VIOTR [4]): 80%
- pest or weed control at 320 g/ha (VIOTR [4]; dosage 320 g/ha): 100%
- pest or weed control at 80 g/ha (ABUTH [5]): 100%
- pest or weed control at 320 g/ha (ABUTH [5]; Dosage: 320 g/ha, scored visually after 3 weeks, 100% = plants have died, 0% = like control plants): 100%
- pest or weed control at 320 g/ha (VERPE [25]): 90%
- pest or weed control at 80 g/ha (PHBPU [7]; dosage 80 g/ha): 80%
- pest or weed control at 20 g/ha (ABUTH [8]): 80%
- pest or weed control at 80 g/ha (ABUTH [8]; dosage 80 g/ha): 80%
- pest or weed control at 80 g/ha (AMARE [9]; 80 g/ha): 80%
- pest or weed control at 80 g/ha (SETVI [10]): 100%
- pest or weed control at 320 g/ha (SETVI [10]; dosage 320 g/ha): 100%
- pest or weed control at 20 g/ha (DIGSA [11]): 80%
- pest or weed control at 80 g/ha (DIGSA [11]; 80 g/ha): 90%
- pest or weed control at 20 g/ha (HORMU [12]): 80%
- pest or weed control at 80 g/ha (HORMU [12]; dosage 80 g/ha): 90%
- pest or weed control at 80 g/ha (AVEFA [13]; 80 g/ha): 90%
- pest or weed control at 20 g/ha (ECHCG [14]): 80%
- pest or weed control at 80 g/ha (ECHCG [14]; dosage 80 g/ha): 80%
- pest or weed control at 320 g/ha (HORMU [15]; 320 g/ha): 100%
- pest or weed control at 80 g/ha (VERPE [26]): 80%
- pest or weed control at 80 g/ha (STEME [16]): 100%
- pest or weed control at 320 g/ha (STEME [16]; dosage 320 g/ha): 100%
- pest or weed control at 80 g/ha (VIOTR [18]; 80 g/ha): 80%
- pest or weed control at 20 g/ha (STEME [19]): 90%
- pest or weed control at 80 g/ha (STEME [19]; 80 g/ha): 90%
- pest or weed control at 80 g/ha (MATIN [20]): 100%
- pest or weed control at 320 g/ha (MATIN [20]; dosage 320 g/ha): 100%
- pest or weed control at 80 g/ha (AMARE [21]; [27]): 100%
- pest or weed control at 320 g/ha (AMARE [21]; 320 g/ha, scored visually after 3 weeks): 100%
- pest or weed control at 20 g/ha (ALOMY [22]): 80%
- pest or weed control at 80 g/ha (ALOMY [22]; dosage 80 g/ha): 90%
- pest or weed control at 80 g/ha (AVEFA [23]): 100%
- pest or weed control at 320 g/ha (AVEFA [23]; [28]): 100%
- pest or weed control at 80 g/ha (DIGSA [24]): 100%
- pest or weed control at 320 g/ha (DIGSA [24]; dosage 320 g/ha): 100%
